Reference: patent publication US11160770B2, “Compounds, compositions and methods for treating oxidative DNA damage disorders” (Indiana University Research and Technology Corporation, priority 2011, dated 2021)

Legend:
[1] = test system: sensory neuronal cultures; type: cell-based, rat
Protocol: EXAMPLE. Cell Cultures. Neuronal cultures were prepared from adult male (150-175 g) Sprague-Dawley rats (Harlan, Indianapolis, Ind.) as described in the published literature. Briefly, hippocampal cells were dissociated using papain and mechanical agitation and separated by gradient centrifugation. The pellet of cells from a discontinuous gradient of Optiprep in L-15 media was washed then resuspended in 1 mL of growth media consisting of Neurobasal Medium supplemented with 0.5 mM L-glutamine, 2% B-27 Supplement minus AO, 50 mg/mL Penicillin-Streptomycin, and 5 ng/mL of Basic Fibroblast Growth Factor (BFGF). Approximately 60,000 cells were plated onto poly-D-lysine and laminin coated plates and grown for 6-14 days in 5% CO2 at 37° C. Growth medium was changed every other day. For sensory neuronal culture, cells were dissociated using collagenase and mechanical dissociation. Approximately 30,000 DRG cells were plated into each well of 12 well culture plates or onto Lab-Tek chamber slides all precoated with poly-D-lysine and laminin. The sensory neurons were maintained in F-12 media supplemented with 10% horse serum, 2 mM glutamine, 100 μg/mL normocin, 50 μg/mL penicillin, 50 μg/mL streptomycin, 50 μM 5-fluoro-2′-deoxyuridine, 150 μM uridine, and 30 ng/mL NGF in 3% CO2 at 37° C. Growth medium was changed every other day and the cells were used after 11-13 days of culture.
EXAMPLE. Assay Methods. Sensory neuronal cultures grown on Lab-Tek microscope chamber slides were processed for immunofluorescence as previously published using a peripherin antibody (1:500) and HA antibody (1:500)[28]. Images were collected in red (peripherin), green (HA), and bright-field modes. A Zeiss LSM offline browser (R4.0: Carl Zeiss Inc.; Thornwood, N.Y.) was used to determine co-localization of peripherin and HA. For trypan blue exculsion, equal volume of 0.4% (w/v) Trypan blue to cell suspension were combined, mixed and scored under phase contrast microscope. […]
EXAMPLE. […] The mean % of cells surviving 24 h after exposure to IR as measured by trypan blue exclusion was evaluated. […]

[2] = test system: DRG cells; assay: CGRP release from DRG cells following cisplatin treatment; type: cell-based, rat; conditions: E3330 20 μM pretreatment 3 days, then cisplatin 10 μM 24 hours
Protocol: EXAMPLE. CGRP. Release studies were performed on cells. Briefly, neuronal cultures were washed once with HEPES buffer consisting of 25 HEPES, 135 NaCl, 3.5 KCl, 2.5 CaCl2, 1 MgCl2, 3.3 d-glucose (each in mmol/L), and 0.1% bovine serum albumin (pH 7.4), maintained at 37° C., and then incubated for successive 10-min intervals with 0.4 mL of the same buffer in the absence or presence of drugs. Basal or resting release was determined by exposing the cells to HEPES buffer alone, whereas stimulated release was determined by exposing the cultures to 30 nmol/L capsaicin. Cells then were reexposed to HEPES buffer without drugs for one or two 10-min incubations to reestablish resting release. During incubations, the cells were maintained in at 37° C. After each incubation, the buffer was removed to measure the amount of CGRP using RIAs. […] Total content is determined by adding the total amount released in all incubations to the amount remaining in the cells. The release data is calculated as a percentage of the total peptide content in the cells. Because CGRP was measured by RIA, results are expressed as CGRP-like immunoreactivity (iCGRP). […]
EXAMPLE. […] Basal levels of CGRP without induction and cumulative total basal are both monitored, indicating correct functioning of the assay.

CCCCCCCCC/C(=C\C1=C(C)C(=O)C(OC)=C(OC)C1=O)C(=O)O [Example 28]
cell viability (effect on IR-induced cell death) ([1]; 20 μM E3330, 3 days prior to and throughout 3 days of radiation (10 Gy/day), 24 h after last dose): effectively blocks IR's effects | cell viability ([1]; male, Sprague-Dawley, rat, 20 μM): 51±3% | cell viability (% cells surviving, trypan blue exclusion) ([1]; male, Sprague-Dawley, rat, 6 days, 10 μM): 81±3% | total content CGRP ([2]; FIG. 3(B)): no statistical significance difference | capsaicin-induced CGRP release from DRG cells after cisplatin ([2]; capsaicin 30 nM): recovery of CGRP release
